# Patent US8691761B2, “Somatostatin receptor 2 antagonists” (priority 2006, dated 2014)
# Values joined by “and” are separate entries in the source; they are usually repeats but may differ in a detail not shown here. Equal entries are not always repeated. “Also recorded” adds a separate entry of the source. Where two headings read alike, the source gives them in different places. Bridge positions count the residues as written; N and C are the ends. Square brackets hold non-standard residues; d marks the D form. Peptide text beside a SMILES is read from it. * marks the point of attachment. DOTA = O=C(O)CN1CCN(CC(=O)O)CCN(CC(=O)*)CCN(CC(=O)O)CC1; Phe(4-NO2) = N[C@@H](Cc1ccc([N+](=O)[O-])cc1)C(=O)O; dPhe(4-NHCONH2) = NC(=O)Nc1ccc(C[C@@H](N)C(=O)O)cc1; Dihydroorotyl(S) = O=C1C[C@@H](C(=O)*)NC(=O)N1; Phe(4-Cl) = N[C@@H](Cc1ccc(Cl)cc1)C(=O)O; Phe(4-NH2) = Nc1ccc(C[C@H](N)C(=O)O)cc1; 2Nal = N[C@@H](Cc1ccc2ccccc2c1)C(=O)O
# Columns and labels:
# [1] = target: T1, sst2 (Homo sapiens, UniProt P30874); test: Calcium release assay in HEK-sst2 cells (Fluo-4NW); format: cell-based; parameters: expressed in transfected cells; host or cells: HEK293 (HEK-sst2); settings: n ≧ 2
# Protocol: Calcium release assay. Intracellular calcium release was measured in HEK-sst2 using the Fluo-4NW Calcium Assay kit as described previously (Magrys, et al. “The role of anti-alpha-enolase autoantibodies in pathogenicity of autoimmune-mediated retinopathy.” J. Clin. Immunol. 2007, 27, 181-192; Michel et al. “The Nef protein of human immunodeficiency virus is a broad-spectrum modulator of chemokine receptor cell surface levels that acts independently of classical motifs for receptor endocytosis and Galphai signaling.” Mol. Biol. Cell. 2006, 17, 3578-3590). In brief, HEK-sst2 cells were seeded (25,000 cells per well) in poly-D-lysine (20 μg/mL) coated 96 well plates and cultured for 1 day at 37° C. and 5% CO2 in culture medium. At the day of the experiment, the cells were washed with assay buffer (1×HBSS, 20 mM HEPES) containing 2.5 mM probenecid, and then loaded with 100 μL/well Fluo-4NW dye in assay buffer containing 2.5 mM probenecid for 30 min at 37° C. and 5% CO2 and then for further 30 min at room temperature. To measure the intracellular calcium mobilization after stimulation with the SRIF analogues to be tested, the dye-loaded cells were transferred to a SpectraMax M2^e (Molecular Devices, Sunnyvale, Calif.). Intracellular calcium mobilization was recorded in a kinetic for 60 sec at room temperature monitoring fluorescence emission at 520 nm (with λex=485 nm) in the presence of the analogues at the concentrations indicated. Maximum fluorescence (Fmax) was measured after the addition of 25 μM ionomycin. Baseline (control) measurements were taken for dye-loaded, untreated cells. Data are shown as percentage of Fmax (% Fmax) as reported previously. (Magrys, et al. J. Clin. Immunol. 2007, 27, 181-192; Michel et al. Mol. Biol. Cell. 2006, 17, 3578-3590). All experiments were repeated at least three times in triplicate.
# Target sequence in this assay (P30874 whole entry): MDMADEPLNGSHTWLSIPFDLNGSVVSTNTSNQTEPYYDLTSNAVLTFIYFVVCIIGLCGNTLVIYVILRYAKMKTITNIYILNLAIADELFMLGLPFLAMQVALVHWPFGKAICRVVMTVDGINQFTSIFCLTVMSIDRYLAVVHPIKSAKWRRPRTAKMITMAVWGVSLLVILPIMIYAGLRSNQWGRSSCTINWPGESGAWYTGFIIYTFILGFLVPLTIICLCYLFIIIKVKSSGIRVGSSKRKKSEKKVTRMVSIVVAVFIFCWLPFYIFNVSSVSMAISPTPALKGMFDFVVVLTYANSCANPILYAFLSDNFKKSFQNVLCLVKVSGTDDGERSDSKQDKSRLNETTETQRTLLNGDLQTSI
# [2] = target: T2, human sst2A receptor (Homo sapiens, UniProt P30874); test: Immunofluorescence-based sst2 internalization assay in HEK-sst2 cells; format: cell-based; settings: n ≧ 2
# T2 construct: expressed in transfected cells; host or cells: HEK293 (HEK-sst2)
# T2 sequence (P30874 whole entry): as above
# Procedure, shortened: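 HEK-sst2 cells treated with vehicle, 100 nM [Tyr^3]-octreotide, octreotide plus 100-fold excess test analogue, or test analogue alone at 10 μM. Receptor internalization visualized by immunofluorescence microscopy with sst2-specific antibody R2-88.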
# [3] = target: sst3 (Homo sapiens, UniProt P32745); settings: literature value compared with own IC50; read-out: reported value at sst3 (Hocart et al.); cited from earlier work
# Sequence of sst3 (P32745 whole entry, species assumed): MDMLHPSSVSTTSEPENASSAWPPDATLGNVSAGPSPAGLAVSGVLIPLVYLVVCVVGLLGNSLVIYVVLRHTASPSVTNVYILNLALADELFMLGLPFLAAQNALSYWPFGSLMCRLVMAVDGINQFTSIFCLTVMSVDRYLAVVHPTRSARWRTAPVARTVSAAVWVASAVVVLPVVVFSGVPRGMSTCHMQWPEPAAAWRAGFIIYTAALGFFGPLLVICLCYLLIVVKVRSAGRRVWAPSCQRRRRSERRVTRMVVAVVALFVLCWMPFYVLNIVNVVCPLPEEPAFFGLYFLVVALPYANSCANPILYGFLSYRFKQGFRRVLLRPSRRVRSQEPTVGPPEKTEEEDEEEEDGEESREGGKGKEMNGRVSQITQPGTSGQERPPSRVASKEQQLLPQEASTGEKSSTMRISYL
# [4] = target: T1, sst2; settings: literature value compared with own IC50; read-out: reported value at sst2 (Hocart et al.); cited from earlier work
# Target sequence in this assay (P30874 whole entry, species assumed): as the sequence (P30874 whole entry) above
# [5] = in vivo; settings: female, athymic nude, mouse, iv, total radioactivity, biodistribution
# Protocol: (§1) The following protocol was used to determine biodistribution
# (§2) Confirmation that the transfected tumors were indeed expressing solely sst2 was obtained in resected tumor samples tested in vitro with somatostatin receptor autoradiography using subtype selective ligands.
# (§3) The biodistribution of was studied at 4 h or 24 h after injection. The organs of interest were collected, blotted dry, weighed, their radioactivity measured and the percentage of injected activity per gram (% IA/g) calculated.
# [6] = system: HEK-sst2 tumors; settings: mouse, in vivo
# Protocol: as §1, §2, §3
# [7] = system: HEK-sst2 tumors; test: In vivo biodistribution of radiolabeled peptides in nude mice bearing HEK-sst2 tumors
# Protocol: as §1, §2, §3
# [8] = target: T3, hSSTR2 (Homo sapiens, UniProt P30874); test: Receptor autoradiography, displacement of 125I-[Leu8,D-Trp22,Tyr25]-SRIF-28 from membrane pellet sections; format: binding
# T3 construct: expressed in transfected cells; host or cells: CHO-K1 or CCL39 cells
# T3 sequence (P30874 whole entry): as above
# [9] = target: T4, hSSTR5 (Homo sapiens, UniProt P35346); test: as above; format: binding
# T4 construct: expressed in transfected cells; host or cells: CHO-K1 or CCL39 cells
# T4 sequence (P35346 whole entry): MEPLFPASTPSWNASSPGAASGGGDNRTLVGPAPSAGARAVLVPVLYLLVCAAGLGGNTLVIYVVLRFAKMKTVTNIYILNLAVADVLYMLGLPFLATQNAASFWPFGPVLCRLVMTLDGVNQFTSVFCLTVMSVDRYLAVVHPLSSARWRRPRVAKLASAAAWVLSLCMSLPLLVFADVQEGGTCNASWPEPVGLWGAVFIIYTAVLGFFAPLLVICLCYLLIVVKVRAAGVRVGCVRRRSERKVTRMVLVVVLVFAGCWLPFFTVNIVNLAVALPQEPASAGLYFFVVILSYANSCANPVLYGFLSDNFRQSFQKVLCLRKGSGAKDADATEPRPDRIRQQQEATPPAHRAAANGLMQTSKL
# [10] = target: T5, hSSTR4 (Homo sapiens, UniProt P31391); test: as above; format: binding
# T5 construct: expressed in transfected cells; host or cells: CHO-K1 or CCL39 cells
# T5 sequence (P31391 whole entry): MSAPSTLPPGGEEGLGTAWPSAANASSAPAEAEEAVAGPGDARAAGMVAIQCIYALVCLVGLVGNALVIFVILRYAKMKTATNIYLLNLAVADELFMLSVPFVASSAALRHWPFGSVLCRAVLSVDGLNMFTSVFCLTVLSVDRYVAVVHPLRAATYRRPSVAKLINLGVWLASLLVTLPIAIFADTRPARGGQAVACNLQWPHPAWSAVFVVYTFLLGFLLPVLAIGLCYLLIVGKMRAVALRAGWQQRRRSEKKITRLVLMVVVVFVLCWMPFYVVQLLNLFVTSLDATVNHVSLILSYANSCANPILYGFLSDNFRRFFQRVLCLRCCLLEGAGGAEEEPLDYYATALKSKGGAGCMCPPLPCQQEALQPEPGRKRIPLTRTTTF
# [11] = target: T6, hSSTR3 (Homo sapiens, UniProt P32745); test: as above; format: binding
# T6 construct: expressed in transfected cells; host or cells: CHO-K1 or CCL39 cells
# T6 sequence (P32745 whole entry): as the sequence (P32745 whole entry, species assumed) above
# [12] = target: T7, hSSTR1 (Homo sapiens, UniProt P30872); test: as above; format: binding
# T7 construct: expressed in transfected cells; host or cells: CHO-K1 or CCL39 cells
# T7 sequence (P30872 whole entry): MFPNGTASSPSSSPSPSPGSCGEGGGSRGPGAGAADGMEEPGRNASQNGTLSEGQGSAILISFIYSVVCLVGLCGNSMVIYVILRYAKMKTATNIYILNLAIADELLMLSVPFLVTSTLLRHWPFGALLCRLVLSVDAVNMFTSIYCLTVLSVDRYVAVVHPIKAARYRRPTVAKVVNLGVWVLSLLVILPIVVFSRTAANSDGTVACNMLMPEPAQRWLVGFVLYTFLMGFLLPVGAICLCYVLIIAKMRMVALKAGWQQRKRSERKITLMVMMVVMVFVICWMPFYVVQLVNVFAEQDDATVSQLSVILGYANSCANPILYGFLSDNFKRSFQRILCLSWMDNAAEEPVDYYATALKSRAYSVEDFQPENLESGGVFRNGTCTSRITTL
# [13] = Table 1, inhibition of radioligand binding to cloned human receptor, read-out: IC50 hSSTR2
# [14] = Table 3, mean ± SEM when N ≧ 3, read-out: sst2 binding affinity (IC50)
# [15] = Table 1, inhibition of radioligand binding to cloned human receptor, read-out: IC50 hSSTR5
# [16] = Table 3, mean ± SEM when N ≧ 3, read-out: sst5 binding affinity (IC50)
# [17] = Table 1, inhibition of radioligand binding to cloned human receptor, read-out: IC50 hSSTR4
# [18] = Table 3, mean ± SEM when N ≧ 3, read-out: sst4 binding affinity (IC50)
# [19] = Table 1, inhibition of radioligand binding to cloned human receptor, read-out: IC50 hSSTR3
# [20] = Table 3, mean ± SEM when N ≧ 3, read-out: sst3 binding affinity (IC50)
# [21] = Table 1, inhibition of radioligand binding to cloned human receptor, read-out: IC50 hSSTR1
# [22] = Table 3, mean ± SEM when N ≧ 3, read-out: sst1 binding affinity (IC50)
Calcium release tested in vitro in HEK-sst2 cells (function) [1],sst2-internalization tested in vitro in HEK-sst2 cells (function) [2],"IC50 [8, 13]","IC50 [8, 14]","IC50 [9, 15]","IC50 [9, 16]","IC50 [10, 17]","IC50 [10, 18]","IC50 [11, 19]","IC50 [11, 20]","IC50 [12, 21]","IC50 [12, 22]",Structure (SMILES),further results
Antagonist,Antagonist,,,,,,,,,,,"C[C@@H](O)[C@@H]1NC(=O)[C@H](CCCCN)NC(=O)[C@@H](Cc2c[nH]c3ccccc23)NC(=O)[C@H](Cc2ccc(O)cc2)NC(=O)[C@H](NC(=O)[C@@H](N)Cc2ccc(Cl)cc2)CSSC[C@@H](C(=O)N[C@@H](Cc2ccc3ccccc3c2)C(N)=O)NC1=O [compound 7, H2N-Cpa-c[DCys-Tyr-DTrp-Lys-Thr-Cys]-2Nal-NH2, reference compound] (H-[Phe(4-Cl)][dC]Y[dW]KTC[2Nal]-NH2; disulfide 2-7)",IC50 [3]: 93 nM; IC50 [4]: 26 nM
,,,,,,,,,,,,"C[C@@H](O)[C@@H]1NC(=O)[C@H](CCCCN)NC(=O)[C@@H](Cc2ccc(NC(N)=O)cc2)NC(=O)[C@H](Cc2ccc(NC(=O)[C@@H]3CC(=O)NC(=O)N3)cc2)NC(=O)[C@H](NC(=O)[C@H](Cc2ccc(Cl)cc2)NC(=O)CN2CCN(CC(=O)O)CCN(CC(=O)O)CCN(CC(=O)O)CC2)CSSC[C@@H](C(N)=O)NC1=O [^111In-labelled Peptide No. 33, metal not drawn] ({DOTA}-[Phe(4-Cl)][dC][Phe(4-NH2)](Dihydroorotyl(S))[dPhe(4-NHCONH2)]KTC-NH2; disulfide 2-7)","tissue uptake at 4 h ([5]; adrenal): 0.23 %ID/g; tissue uptake at 4 h ([5]; blood): 0.12 %ID/g; tissue uptake at 4 h ([5]; bone): 0.04 %ID/g; tissue uptake at 4 h ([5]; heart): 0.05 %ID/g; tissue uptake at 4 h ([5]; liver): 0.32 %ID/g; tissue uptake at 4 h ([5]; muscle): 0.02 %ID/g; tissue uptake at 4 h ([5]; pancreas): 0.05 %ID/g; tissue uptake at 4 h ([5]; pituitary): 0.14 %ID/g; tissue uptake at 4 h ([5]; sst2 tumor): 0.22 %ID/g; tissue uptake at 4 h ([5]; sst3 tumor): 0.14 %ID/g; biodistribution, intestine ([6]; female, athymic nude, iv, 4 h): 0.09 % IA/g; biodistribution, kidney ([6]; female, athymic nude, iv, 4 h): 10.3 % IA/g; biodistribution, lung ([6]; female, athymic nude, iv, 4 h): 0.21 % IA/g; biodistribution, spleen ([6]; female, athymic nude, iv, 4 h): 0.2 % IA/g; biodistribution, stomach ([6]; female, athymic nude, iv, 4 h): 0.12 % IA/g; effect of excess unlabelled compound on binding in vivo ([7]; 1000- or 2000-fold excess of unlabelled compound): inhibited binding"
Antagonist,Antagonist,1.5 nM,1.3 nM,> 1000 nM,> 1000 nM,> 1000 nM,> 1000 nM,> 1000 nM,> 1000 nM,> 1000 nM,> 1000 nM,"C[C@@H](O)[C@@H]1NC(=O)[C@H](CCCCN)NC(=O)[C@@H](Cc2ccc(NC(N)=O)cc2)NC(=O)[C@H](Cc2ccc(O)cc2)NC(=O)[C@H](NC(=O)[C@H](Cc2ccc([N+](=O)[O-])cc2)NC(=O)CN2CCN(CC(=O)O)CCN(CC(=O)O)CCN(CC(=O)O)CC2)CSSC[C@@H](C(=O)N[C@@H](Cc2ccc3ccccc3c2)C(N)=O)NC1=O [Peptide No. 5, DOTA-pNO2Phe-c[DCys-Tyr-DAph(Cbm)-Lys-Thr-Cys]-2Nal-NH2] ({DOTA}-[Phe(4-NO2)][dC]Y[dPhe(4-NHCONH2)]KTC[2Nal]-NH2; disulfide 2-7)","tumor to kidney ratio (in words) ([7]; mouse, in vivo): excellent tumor to kidney ratio"

Structure (SMILES),Calcium release tested in vitro in HEK-sst2 cells (function) [1],sst2-internalization tested in vitro in HEK-sst2 cells (function) [2],"IC50 [8, 13]","IC50 [8, 14]","IC50 [9, 15]","IC50 [9, 16]","IC50 [10, 17]","IC50 [10, 18]","IC50 [11, 19]","IC50 [11, 20]","IC50 [12, 21]","IC50 [12, 22]",further results
"C[C@@H](O)[C@@H]1NC(=O)[C@H](CCCCN)NC(=O)[C@@H](Cc2ccc(NC(N)=O)cc2)NC(=O)[C@H](Cc2ccc(O)cc2)NC(=O)[C@H](NC(=O)[C@H](Cc2ccc([N+](=O)[O-])cc2)NC(=O)CN2CCN(CC(=O)O)CCN(CC(=O)O)CCN(CC(=O)O)CC2)CSSC[C@@H](C(=O)N[C@H](Cc2ccc(O)cc2)C(N)=O)NC1=O [Peptide No. 3, DOTA-pNO2Phe-c[DCys-Tyr-DAph(Cbm)-Lys-Thr-Cys]-DTyr-NH2] ({DOTA}-[Phe(4-NO2)][dC]Y[dPhe(4-NHCONH2)]KTC[dY]-NH2; disulfide 2-7)",Antagonist,antagonistic property; also recorded: Antagonist,0.53 ± 0.06 nM,0.75 nM and < 1 nM,> 1000 nM,> 1000 nM,> 1000 nM,> 1000 nM,> 1000 nM,> 1000 nM,> 1000 nM,> 1000 nM,sst2 binding affinity relative to SRIF-28 [8]: three to four-fold greater; tumor to kidney ratio (in words) [6]: excellent tumor to kidney ratio
